Earlier results on one compound are cited in patent US7632519B2, “TRPV1 agonist compounds, formulations, prodrugs, methods for using the same” (NeurogesX, Inc., priority 2005, dated 2009).

The conditions of this data set: oral dose levels of up to 2 mg/kg, humans.

In the case of `COc1cc(CNC(=O)CCCC/C=C/C(C)C)ccc1O` [capsaicin], the “adverse effects after oral dosing” value is recorded as “without reported adverse effects”.
